# According to ChEMBL document CHEMBL1155533, “Substituted 2H-isoquinolin-1-ones as potent Rho-kinase inhibitors: part 3, aryl substituted pyrrolidines” (Bioorg Med Chem Lett, 2010):
# Experiments:
# [1] = biological target: Rho-associated protein kinase 2 (Homo sapiens, UniProt O75116); assay: Inhibition of ROCK2 by luciferase based ATP detection assay
# in vitro = conditions: human
# Aorta = assay: Vasorelaxant activity in rat aortic ring assessed as inhibition of phenylephrine-induced contraction; format: functional, tissue-based
# [2] = biological target: T1, Protein kinase C epsilon type (Homo sapiens, UniProt Q02156); assay: Inhibition of PRKCE
# T1 sequence (Q02156 whole entry): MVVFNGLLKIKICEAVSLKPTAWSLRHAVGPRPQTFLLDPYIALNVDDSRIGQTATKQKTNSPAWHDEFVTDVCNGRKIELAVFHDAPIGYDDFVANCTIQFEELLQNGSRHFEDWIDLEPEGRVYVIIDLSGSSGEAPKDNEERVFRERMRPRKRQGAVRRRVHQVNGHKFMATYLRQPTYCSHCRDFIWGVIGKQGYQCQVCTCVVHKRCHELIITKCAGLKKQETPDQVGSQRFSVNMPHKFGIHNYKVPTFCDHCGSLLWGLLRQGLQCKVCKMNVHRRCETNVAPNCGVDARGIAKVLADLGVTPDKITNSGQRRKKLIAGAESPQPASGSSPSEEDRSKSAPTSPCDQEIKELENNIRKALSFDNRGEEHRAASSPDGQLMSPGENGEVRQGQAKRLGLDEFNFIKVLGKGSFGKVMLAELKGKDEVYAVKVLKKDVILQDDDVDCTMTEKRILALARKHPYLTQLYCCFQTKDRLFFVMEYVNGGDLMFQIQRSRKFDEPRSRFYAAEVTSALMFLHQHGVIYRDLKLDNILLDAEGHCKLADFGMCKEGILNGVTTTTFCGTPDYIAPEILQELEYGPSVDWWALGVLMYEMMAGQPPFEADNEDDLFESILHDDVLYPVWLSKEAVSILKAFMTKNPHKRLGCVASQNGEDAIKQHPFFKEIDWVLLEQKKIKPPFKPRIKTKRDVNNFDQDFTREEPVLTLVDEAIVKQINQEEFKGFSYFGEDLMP
# [3] = biological target: Serine/threonine-protein kinase N2 (Homo sapiens, UniProt Q16513); assay: Inhibition of PRKCL2
# [4] = biological target: T2, cGMP-dependent protein kinase 2 (Homo sapiens, UniProt Q13237); assay: Inhibition of PRKG2
# T2 sequence (Q13237 whole entry): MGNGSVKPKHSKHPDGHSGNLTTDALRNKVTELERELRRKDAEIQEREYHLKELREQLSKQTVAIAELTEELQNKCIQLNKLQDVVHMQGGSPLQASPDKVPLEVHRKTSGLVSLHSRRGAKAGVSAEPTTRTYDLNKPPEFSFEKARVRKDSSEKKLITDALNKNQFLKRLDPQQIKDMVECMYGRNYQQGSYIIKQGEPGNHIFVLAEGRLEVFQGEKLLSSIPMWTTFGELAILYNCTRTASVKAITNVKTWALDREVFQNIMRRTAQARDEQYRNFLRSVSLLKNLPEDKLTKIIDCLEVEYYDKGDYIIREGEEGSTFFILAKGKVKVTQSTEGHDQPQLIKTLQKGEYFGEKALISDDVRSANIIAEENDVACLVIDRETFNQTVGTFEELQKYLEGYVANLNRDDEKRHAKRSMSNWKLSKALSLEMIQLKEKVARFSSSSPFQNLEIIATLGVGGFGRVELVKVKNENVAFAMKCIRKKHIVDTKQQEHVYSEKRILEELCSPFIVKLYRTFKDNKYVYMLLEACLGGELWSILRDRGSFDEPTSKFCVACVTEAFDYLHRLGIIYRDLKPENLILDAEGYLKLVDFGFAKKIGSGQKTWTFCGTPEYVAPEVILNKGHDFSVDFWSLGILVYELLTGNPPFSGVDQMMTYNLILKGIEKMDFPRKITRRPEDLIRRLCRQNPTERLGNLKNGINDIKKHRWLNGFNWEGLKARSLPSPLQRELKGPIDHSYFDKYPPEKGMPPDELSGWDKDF
# Rho-associated protein kinase 2, sequence (O75116 whole entry): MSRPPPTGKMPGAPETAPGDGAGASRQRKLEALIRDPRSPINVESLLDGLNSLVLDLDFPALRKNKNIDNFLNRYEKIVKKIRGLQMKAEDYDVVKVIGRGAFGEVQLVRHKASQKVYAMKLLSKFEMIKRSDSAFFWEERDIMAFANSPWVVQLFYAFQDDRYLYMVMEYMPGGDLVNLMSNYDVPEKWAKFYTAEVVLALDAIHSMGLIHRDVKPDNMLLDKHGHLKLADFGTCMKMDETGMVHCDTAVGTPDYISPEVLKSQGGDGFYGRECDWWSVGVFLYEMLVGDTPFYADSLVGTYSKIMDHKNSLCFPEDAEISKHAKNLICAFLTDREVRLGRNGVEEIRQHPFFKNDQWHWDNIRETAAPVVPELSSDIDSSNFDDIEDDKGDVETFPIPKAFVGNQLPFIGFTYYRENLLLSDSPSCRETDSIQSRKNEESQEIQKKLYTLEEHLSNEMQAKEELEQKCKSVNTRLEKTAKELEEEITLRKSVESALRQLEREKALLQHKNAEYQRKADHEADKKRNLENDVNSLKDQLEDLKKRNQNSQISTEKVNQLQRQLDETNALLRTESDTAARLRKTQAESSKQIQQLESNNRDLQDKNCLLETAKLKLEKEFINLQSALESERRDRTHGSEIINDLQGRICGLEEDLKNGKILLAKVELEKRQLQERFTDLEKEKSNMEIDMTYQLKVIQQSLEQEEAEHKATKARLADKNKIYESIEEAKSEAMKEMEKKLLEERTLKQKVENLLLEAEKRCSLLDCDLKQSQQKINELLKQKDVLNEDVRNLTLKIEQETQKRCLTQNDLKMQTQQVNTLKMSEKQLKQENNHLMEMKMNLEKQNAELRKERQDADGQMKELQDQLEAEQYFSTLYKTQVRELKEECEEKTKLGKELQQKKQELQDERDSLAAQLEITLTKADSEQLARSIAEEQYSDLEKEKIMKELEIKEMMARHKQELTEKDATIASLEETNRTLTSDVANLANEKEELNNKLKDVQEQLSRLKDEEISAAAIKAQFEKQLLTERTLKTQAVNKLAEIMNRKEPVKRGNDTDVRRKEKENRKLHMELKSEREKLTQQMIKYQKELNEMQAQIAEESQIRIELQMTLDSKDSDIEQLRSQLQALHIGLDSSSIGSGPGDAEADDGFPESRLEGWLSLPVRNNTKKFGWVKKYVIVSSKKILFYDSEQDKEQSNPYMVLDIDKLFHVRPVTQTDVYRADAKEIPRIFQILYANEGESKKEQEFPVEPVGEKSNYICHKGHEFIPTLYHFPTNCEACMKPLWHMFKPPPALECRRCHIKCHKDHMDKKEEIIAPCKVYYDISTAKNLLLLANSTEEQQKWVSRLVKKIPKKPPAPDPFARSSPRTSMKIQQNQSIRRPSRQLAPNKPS
# Serine/threonine-protein kinase N2, sequence (Q16513 whole entry): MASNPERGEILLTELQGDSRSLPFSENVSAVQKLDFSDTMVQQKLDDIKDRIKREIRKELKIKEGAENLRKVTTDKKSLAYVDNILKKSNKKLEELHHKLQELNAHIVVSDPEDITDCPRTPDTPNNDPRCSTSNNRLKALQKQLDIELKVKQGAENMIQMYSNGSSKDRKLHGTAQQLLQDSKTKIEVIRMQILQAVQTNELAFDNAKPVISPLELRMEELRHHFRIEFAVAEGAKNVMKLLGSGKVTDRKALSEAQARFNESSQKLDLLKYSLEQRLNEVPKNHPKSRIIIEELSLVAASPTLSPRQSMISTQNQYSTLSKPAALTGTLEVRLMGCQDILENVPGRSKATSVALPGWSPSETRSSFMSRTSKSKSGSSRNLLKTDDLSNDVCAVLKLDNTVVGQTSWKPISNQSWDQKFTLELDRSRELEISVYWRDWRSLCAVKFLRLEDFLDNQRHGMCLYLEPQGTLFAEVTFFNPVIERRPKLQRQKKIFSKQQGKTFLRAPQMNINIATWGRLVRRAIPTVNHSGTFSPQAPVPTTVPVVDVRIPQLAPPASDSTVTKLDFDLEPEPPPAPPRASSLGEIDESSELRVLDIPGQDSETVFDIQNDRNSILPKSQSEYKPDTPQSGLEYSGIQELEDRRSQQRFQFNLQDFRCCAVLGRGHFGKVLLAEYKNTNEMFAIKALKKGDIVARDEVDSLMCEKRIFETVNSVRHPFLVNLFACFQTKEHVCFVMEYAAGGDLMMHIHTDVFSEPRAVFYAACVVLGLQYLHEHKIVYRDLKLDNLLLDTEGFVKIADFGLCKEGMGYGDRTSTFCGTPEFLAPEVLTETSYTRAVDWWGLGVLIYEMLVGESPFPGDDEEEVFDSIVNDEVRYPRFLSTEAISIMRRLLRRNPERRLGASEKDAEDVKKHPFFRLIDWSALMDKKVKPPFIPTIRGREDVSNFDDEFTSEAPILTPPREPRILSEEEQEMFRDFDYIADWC
IC50 [1] [nM],EC50 (Aorta) [nM],SMILES,also measured
5,–,Cc1cccc(C2CNCC2C(=O)Nc2cc3cc[nH]c(=O)c3cc2Cl)c1 (racemic),–
11,–,CC(C)(C)c1cccc(C2CNCC2C(=O)Nc2cc3cc[nH]c(=O)c3cc2Cl)c1 (racemic),–
7,–,O=C(Nc1cc2cc[nH]c(=O)c2cc1Cl)C1CNCC1c1cccc(OC(F)(F)F)c1 (racemic),–
2,63,O=C(Nc1cc2cc[nH]c(=O)c2cc1Cl)C1CNCC1c1cccc(Br)c1 (racemic),half-life (in vitro; liver microsomes): 43 min
4,–,CCc1cccc(C2CNCC2C(=O)Nc2cc3cc[nH]c(=O)c3cc2Cl)c1 (racemic),–
6,–,CC(C)c1cccc(C2CNCC2C(=O)Nc2cc3cc[nH]c(=O)c3cc2Cl)c1 (racemic),–
4,–,O=C(Nc1cc2cc[nH]c(=O)c2cc1Cl)C1CNCC1c1cccc(C(F)(F)F)c1 (racemic),–
4,88,COc1cccc(C2CNCC2C(=O)Nc2cc3cc[nH]c(=O)c3cc2Cl)c1 (racemic),–
8,150,O=C(Nc1cc2cc[nH]c(=O)c2cc1Cl)C1CNCC1c1cccnc1 (racemic),half-life (in vitro; microsomes): 49 min

# The next lines start with the molecule.
SMILES,IC50 [1] [nM],EC50 (Aorta) [nM],also measured
O=C(Nc1cc2cc[nH]c(=O)c2cc1Cl)C1CNCC1c1ccccc1 (racemic),6,89,half-life (in vitro; liver microsomes): 130 min
NC(C(=O)Nc1cc2cc[nH]c(=O)c2cc1Cl)c1cccc(Cl)c1 (centres undefined),15,–,–
O=C(Nc1cc2cc[nH]c(=O)c2cc1Cl)C1CNCC1c1ccncc1 (racemic),26,66,–
O=C(Nc1cc2cc[nH]c(=O)c2cc1Cl)C1CNCC1c1ccc(F)cc1 (racemic),9,160,half-life (in vitro; liver microsomes): 61 min
O=C(Nc1cc2cc[nH]c(=O)c2cc1Cl)[C@H]1CNC[C@@H]1c1ccc(Cl)cc1,–,40,–
O=C(Nc1cc2cc[nH]c(=O)c2cc1Cl)C1CNCC1c1ccc(Cl)cc1 (racemic),6,60,half-life (in vitro; liver microsomes): > 300 min
O=C(Nc1cc2cc[nH]c(=O)c2cc1Cl)C1CNCC1c1ccc(Br)cc1 (racemic),4,140,half-life (in vitro; microsomes): 238 min
O=C(Nc1cc2cc[nH]c(=O)c2cc1Cl)C1(c2ccccc2)CCNC1 (centres undefined),240,–,–
O=C(Nc1cc2cc[nH]c(=O)c2cc1Cl)[C@@H]1CCCNC1,47,550,half-life (in vitro; liver microsomes): 71 min
O=C(Nc1cc2cc[nH]c(=O)c2cc1Cl)C1(c2ccccc2)CCNCC1,230,–,–
O=C(Nc1cc2cc[nH]c(=O)c2cc1Cl)C1CNCCC1c1ccccc1 (racemic),6,55,half-life (in vitro; liver microsomes): 37 min
O=C(Nc1cc2cc[nH]c(=O)c2cc1Cl)C1CNCC1c1ccc(Cl)cc1Cl (racemic),8,–,–
CNC(C(=O)Nc1cc2cc[nH]c(=O)c2cc1Cl)c1ccccc1 (centres undefined),–,170,half-life (in vitro; microsomes): 15 min
O=C(Nc1cc2cc[nH]c(=O)c2cc1Cl)C1CNCC1c1ccccn1 (racemic),14,210,half-life (in vitro; liver microsomes): 58 min
O=C(Nc1cc2cc[nH]c(=O)c2cc1Cl)[C@@H]1CNC[C@H]1c1ccc(Cl)cc1,4,23,IC50 [2]: 1000 nM; IC50 [3]: 14 nM; IC50 [4]: 24 nM
